Values of other authors as cited in patent US20090048334A1, “Sodium ascorbate solubilisate” (priority 2004, published 2009).

Details: for content of the agent in an aqueous solution: over an extended period of time

Row | content of the agent in an aqueous solution | added ascorbic acid present (aqueous ascorbic acid solution, after 30 days) | SMILES
1 | remains constant | – | CCCCCCCCCCCCCCCC(=O)OC[C@H](O)[C@H]1OC(=O)C(O)=C1O [ascorbylpalmitate]
2 | – | approximately 70% | O=C1O[C@H]([C@@H](O)CO)C(O)=C1O [ascorbic acid]
3 | remains constant | – | O=C1O[C@H]([C@@H](O)CO)C([O-])=C1OP(=O)([O-])[O-].[Na+].[Na+].[Na+] [sodium ascorbic phosphate]
